Experimental data taken from PMC11514582, “Leveraging the Aggregated Protein Dye YAT2150 for Malaria Chemotherapy” (Pharmaceutics, 2024).
Where two headings read alike, the source gives them in different places.

Legend:
[1] = cited from earlier work
[2] = Cytotoxicity assay in HUVEC (resazurin); type: cell-based; conditions: human, read-out: HUVEC inhibition (CC50)
[3] = test system: P. berghei ookinete development; assay: Ex vivo gametocyte-to-ookinete transition inhibition (ookinete maturation) assay; type: cell-based, Plasmodium berghei; conditions: ex vivo, 24 h at 21 °C
Method: Eight days before ookinete production, 100 µL of a red blood cell (RBC) pellet containing the Plasmodium berghei circumsporozoite protein and thrombospondin-related adhesive protein (TRAP)-related protein (CTRP)-green fluorescent protein (GFP) strain (CTRP-GFP, which expresses GFP when reaching ookinete stage, kindly provided by Inga Siden-Kiamos) in cryopreservation solution (RBC pellet:RPMI:30% glycerol in water, 1:1:2) was administered intraperitoneally (i.p.) to a BALB/c mouse (Charles River Laboratories, Wilmington, MA, USA). […] The effect of drugs on gametocyte-to-ookinete conversion was assessed in three independent replicas by plating 120 µL of each culture treated with serial dilutions of the compounds in 96-well plates and incubated for 24 h at 21 °C with orbital shaking at 50 rpm (modified from). Finally, samples diluted 1:100 in PBS were analyzed in an LSRFortessa flow cytometer (BD Biosciences, Franklin Lakes, NJ, USA) set up with the 4 lasers, 20 parameters standard configuration. The GFP positive cell population was counted (λexcitation: 488 nm; λemission: 525/40 nm) using BD FACSDiva software 6.1.3 (BD Biosciences) for data collection and Flowing Software 2.5.1 (Turku Center for Biotechnology, Turku, Finland) for analysis.

[4] = test system: liver stages of P. berghei in Huh7; conditions: human hepatoma cell line Huh7; read-out: IC50 against liver stages of P. berghei; cited from earlier work
CYP1A2 = molecular target: T1, CYP1A2 (Homo sapiens, UniProt P05177); conditions: cited from earlier work
T1 sequence (P05177 1-516): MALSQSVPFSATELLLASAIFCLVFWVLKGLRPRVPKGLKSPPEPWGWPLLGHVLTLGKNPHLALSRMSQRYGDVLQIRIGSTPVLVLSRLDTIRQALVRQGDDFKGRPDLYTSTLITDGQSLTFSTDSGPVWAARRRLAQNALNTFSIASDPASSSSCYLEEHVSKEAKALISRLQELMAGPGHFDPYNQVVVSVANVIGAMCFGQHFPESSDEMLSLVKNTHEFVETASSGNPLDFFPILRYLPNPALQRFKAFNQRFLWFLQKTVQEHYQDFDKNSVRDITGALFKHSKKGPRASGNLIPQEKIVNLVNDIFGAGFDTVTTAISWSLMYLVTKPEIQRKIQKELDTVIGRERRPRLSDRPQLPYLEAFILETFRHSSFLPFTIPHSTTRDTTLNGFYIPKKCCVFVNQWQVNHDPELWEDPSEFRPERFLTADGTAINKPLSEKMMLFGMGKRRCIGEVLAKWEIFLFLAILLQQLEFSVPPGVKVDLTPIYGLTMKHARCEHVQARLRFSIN

C. elegans = assay: In vivo toxicity in C. elegans; parameters: species or system Caenorhabditis elegans; conditions: non-encapsulated, 50 µM
Method: (§1) The Caenorhabditis elegans N2 Bristol strain (kindly provided by Dr. Christian Griñán-Ferré) was cultured, following established methods, in 90 mm Petri dishes containing solid Nematode Growth Media (NGM) seeded with E. coli OP50 (100 µL of an overnight culture spread on top of the NGM), maintained at 20 °C, and expanded to new plates once a week by transferring a 1-cm^3 NGM cube to a new plate. […] To do this, a plate with gravid adult worms was washed twice with 5 mL of M9 buffer (20 mM KH2PO4, 42 mM Na2HPO4, 86 mM NaCl, 1 mM MgSO4), and the nematodes were transferred to a 15-mL conical tube, where they were pelleted (400× g, 2 min). […] C. elegans viability and body length were analyzed after 48 h under a stereomicroscope (Leica M50 Routine Stereo Microscope; Leica Microsystems GmbH), taking representative images and videos with a 4× objective. C. elegans viability was determined in three experimentally independent replicas according to two variables: body shape (stiff, rod-like worms were counted as dead, as opposite to s-shaped live worms) and presence of movement in living C. elegans, with an n ≥ 100 worms/sample. Nematode body length was calculated with ImageJ software in worms anesthetized with 50 mM sodium azide. Statistically significant differences between groups were determined by the two-way analysis of variance (ANOVA) using GraphPad Prism 9.0.1.

[5] = In vivo toxicity in C. elegans; parameters: species or system Caenorhabditis elegans; conditions: N2 Bristol, Caenorhabditis elegans, in vivo; 48 h, viability
Method: as §1

[6] = test system: P. falciparum asexual blood stages; assay: microbe, parasite or virus in culture; conditions: Plasmodium falciparum
Method: The asexual blood stages of P. falciparum parasites of the 3D7 strain (Malaria Research and Reference Reagent Resource Center, Manassas, VA, USA) were cultured in group B human RBCs at 3% hematocrit, which was kept throughout the experiments, and incubated in RPMIc. Parasites were maintained at 37 °C under an atmosphere of 5% O2, 5% CO2, and 90% N2. […] The parasites were then cultured under standard conditions for 48 h, allowing for a complete replication cycle. After the incubation period, 3 µL of culture from each well was mixed with 197 µL of PBS containing 0.1 µM Syto 11 (Thermo Fisher Scientific, Inc.) to obtain a final concentration of 1 × 10^6 to 10 × 10^6 cells/mL. Parasitemia levels were measured using an LSRFortessa flow cytometer equipped with a standard configuration of four lasers and 20 parameters. Single-cell populations were identified on a forward-side scatter plot. […] The inhibition data were then transformed using sigmoidal fitting to determine IC50.
For stage arrest assays, P. falciparum cultures were tightly synchronized in schizont stages by repeated treatment with 70% Percoll (GE Healthcare, Chicago, IL, USA) [26, 27]. […] Pictures were taken with a Nikon Eclipse 50i microscope equipped with a DS-Fi1 camera (Nikon Corporation, Tokyo, Japan).

CYP3A4 = CYP3A4 (Homo sapiens, UniProt P08684); assay: in vitro; conditions: microsomes
[7] = Cytotoxicity assay in NCI-H460 (MTT); type: cell-based; conditions: human, NCI-H460 cells, read-out: NCI-H460 inhibition (CC50)
Method: THP-1 human acute monocytic leukemia cells and NCI-H460 human lung carcinoma cells were grown in RPMI supplemented with 10% FBS. Hep-G2 human hepatocellular carcinoma cells were cultured in Eagle’s minimum essential medium (EMEM) supplemented with 10% FBS. A2780 human ovarian carcinoma cells were grown in RPMI supplemented with 10% FBS and 2 mM L-glutamine. MCF-7 human breast adenocarcinoma cells were cultured in EMEM containing 2 mM L-glutamine and Earle’s balanced salt solution adjusted with 1.5 g/L sodium bicarbonate, 0.1 mM non-essential amino acids, and 1 mM sodium pyruvate and supplemented with 10% FBS. […] Except for Caco-2 and HUVEC, inhibition of cell growth was evaluated using a protocol based on monitoring the transformation into formazan of the tetrazolium salt of MTT (3-(4,5-dimethylthiazol-2-yl)-2,5-diphenyltretrazolium bromide) by metabolically active cells. […] After 96 further h of incubation in the same conditions, 10 µL of a 5 mg/mL MTT solution in PBS was added to each sample, and the incubation was resumed for another 4 h. […] The absorbance measurement range was framed between one sample containing 4000 cells in plain growth medium (to determine the stable cell concentration) and another sample containing an equal cell number in growth medium supplemented with growth factors (to measure the maximum cell growth at 96 h).

Sequence of CYP3A4 (P08684 whole entry): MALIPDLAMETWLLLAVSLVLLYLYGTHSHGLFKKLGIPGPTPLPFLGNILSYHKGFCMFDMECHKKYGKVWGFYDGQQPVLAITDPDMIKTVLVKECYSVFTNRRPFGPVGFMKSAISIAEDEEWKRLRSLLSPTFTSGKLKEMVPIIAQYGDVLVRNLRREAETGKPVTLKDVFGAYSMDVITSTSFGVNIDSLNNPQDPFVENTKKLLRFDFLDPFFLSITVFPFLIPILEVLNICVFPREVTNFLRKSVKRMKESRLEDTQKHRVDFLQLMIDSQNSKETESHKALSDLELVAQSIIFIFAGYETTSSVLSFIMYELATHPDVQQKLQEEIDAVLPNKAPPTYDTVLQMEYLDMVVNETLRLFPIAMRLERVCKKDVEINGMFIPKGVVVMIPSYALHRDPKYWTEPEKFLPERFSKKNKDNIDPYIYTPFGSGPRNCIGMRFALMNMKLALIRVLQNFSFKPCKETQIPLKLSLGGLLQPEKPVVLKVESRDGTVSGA

CCN(CC)c1ccc(/C=C/c2cc[n+](CCCCCCCCCC[n+]3ccc(/C=C/c4ccc(N(CC)CC)cc4)c(C)c3)cc2C)cc1 [YAT2150]
Stability in human plasma (% remaining after 1 h) ([1]; 1 h): 100.0 ^7%
Stability in human plasma (% remaining after 2 h) ([1]; 2 h): 99.7 ^7%
Stability in human plasma (% remaining after 6 h) ([1]; 6 h): 91.3 ^7%
CC50 at 48 h [2]: 14800 ± 3800 nM
concentration that abolished ookinete production [3]: ca. 0.5 µM
IC50 [4]: 780 nM
CYP1A2 inhibition (% at 10 µM) (CYP1A2): around 50%
nematode survival/length assay observation (C. elegans): No worms could be found
IC50 at 48 h [5]: 16200 ± 1400 nM
IC50 ([6]; 3D7, 48 h, read-out: IC50 in P. falciparum asexual blood stages): 90.5 ± 7 nM
IC80 ([6]; 3D7, read-out: IC80 (stage arrest assay)): 200 nM
IC50 ([6]; 2 h, read-out: IC50 ± SEM): 224 ± 27 nM
inhibition at 30 min, 10 µM (CYP3A4): 35 ± 3%
CC50 at 96 h [7]: 6760 ± 270 nM
